Test results reported in patent publication US6653081B2, “Methods for monitoring antiretroviral therapy and guiding therapeutic decision in the treatment of HIV/AIDS” (ViroLogic, Inc., priority 2000, dated 2003).

Assays:
RTV-011073/241V = experiment: Phenotypic susceptibility assay, RTV-011073/241V; format: cell-based, HIV; settings: RTV-011073 with V241S reverted
Text: (§1) The resistance test vectors containing a functional luciferase gene cassette were constructed and host cells were transfected with the resistance test vector DNA. The resistant test vectors contained patient-derived reverse transcriptase and protease sequences that were either susceptible or resistant to the antiretroviral agents, such as nucleoside reverse transcriptase inhibitors, (NRTIs) non-nucleoside reverse transcriptase inhibitors […] protease inhibitors. The resistance test vector viral particles produced by transfecting the resistance test vector DNA into host cells, either in the presence or absence of PRIs, were used to infect target host cells grown either in the absence of NRTIs or NNRTIs, or in the presence of increasing concentrations of the drug. The amount of luciferase activity produced in infected target host cells in the presence of varying concentrations of drug was compared to the amount of luciferase produced in infected target host cells in the absence of drug. “Drug resistance” was measured as the amount of drug required to inhibit by 50% the luciferase activity detected in the absence of drug (inhibitory concentration 50%, IC50). The IC50 values were determined by plotting percent drug inhibition vs. log10 drug concentration. Stimulation of viral replication was measured as the percent increase in luciferase activity detected when infection occurs in the presence of drug as compared to in the absence of drug.
(§2) Host cells were seeded in 10-cm-diameter dishes and were transfected several days after plating with resistance test vector plasmid DNA and the envelope expression vector. Transfections were performed using a calcium-phosphate precipitation procedure. The cell culture media containing the DNA precipitate was replaced with fresh medium, from one to 24 hours, after transfection. Cell culture media containing resistance test vector viral particles was harvested one to four days after transfection and was passed through a […] filter before being used to infect target host cells, or being stored at −80° C. HIV capsid protein (p24) levels in the harvested cell culture media were determined by an EIA method as described by the manufacturer (SAIC; Frederick, Md.). Before infection, target cells (293 and 293/T) were plated in cell culture media. Control infections were performed using cell culture media from mock transfections (no DNA) or transfections containing the resistance test vector plasmid DNA without the envelope expression plasmid. One to three or more days after infection, the media was removed and cell lysis buffer (Promega) was added to each well. Cell lysates were assayed for luciferase activity (FIG. 3). The inhibitory effect of the drug was determined using the following equation:
(§3) % luciferase inhibition=1−(RLUluc[drug]÷RLUluc)×100
(§4) where RLUluc [drug] is the Relative Light Unit of luciferase activity in infected cells in the presence of drug, and RLUluc is the Relative Light Unit of luciferase activity in infected cells in the absence of drug. IC50values were obtained from the sigmoidal curves that were generated from the data by plotting the percent inhibition of luciferase activity vs. the log10 drug concentration. The percent luciferase stimulation is the negative of the % inhibition calculated using the formula above.
A resistance test vector containing all of the mutations present in RTV-011073 except for the V241S and the T277K was constructed and tested using the phenotypic assay described earlier. The results were compared to those determined using the parent RTV-011073. We determined the pattern of phenotypic susceptibility to the NNRTIs, delavirdine, nevirapine and efavirenz, in the reverted vector RTV-011073/241V/277T. […] A resistance test vector containing all of the mutations present in RTV-011073 except for the V241S was constructed and tested using the phenotypic assay described earlier. The results were compared to those determined using the parent RTV-011073. […]

RTV-010829 = experiment: Phenotypic susceptibility assay, RTV-010829; format: cell-based, HIV; settings: patient 10829; for decrease in susceptibility: K103N, V245E, I270M
Text: as §1, §2, §3, §4
(§5) A resistance test vector was constructed as described in Example 1 from a virus sample obtained from patient 10829. The prior and current treatment regimens are unknown. Isolation of viral RNA and RT/PCR was used to generate a patient derived segment (PDS) that comprised viral sequences coding for all of PR and aa 1-313 of RT. The PDS were inserted into an indicator gene viral vector to generate a resistance test vector designated RTV-010829. RTV-010829 was then tested in a phenotypic assay to determine accurately and quantitatively the level of susceptibility to a panel of anti-retroviral drugs. […]

RTV-013522 = experiment: Phenotypic susceptibility assay, RTV-013522; format: cell-based, HIV; settings: patient 013522; for decrease in susceptibility: K103N, I135T, I270S
Text: as §1, §2, §3, §4
as §5, with “013522.” for “10829.”, “RT from all three samples.” for “RT.”, “RTV-013522. RTV-013522” for “RTV-010829. RTV-010829”

RTV-K103N/I135T = experiment: Phenotypic susceptibility assay, RTV-K103N/I135T; format: cell-based, HIV-1; settings: site-directed K103N + I135T
Text: as §1, §2, §3, §4
(§6) A resistance test vector containing two mutations, K103N and I135T (RTV-K103N/I135T) was constructed and tested in the phenotypic assay described earlier. The results were compared to those determined using a genetically defined resistance test vector that was wild type at position 103 and 135. We determined the pattern of phenotypic susceptibility to the NNRTIs, delavirdine, nevirapine and efavirenz, in RTV-K103N/I135T.

RTV-I135T/V245E = experiment: Phenotypic susceptibility assay, RTV-I135T/V245E; format: cell-based, HIV-1; settings: site-directed I135T + V245E
Text: as §1, §2, §3, §4
as §6, with “I135T” for “K103N”, “V245E (RTV-I135T/V245E)” for “I135T (RTV-K103N/I135T)”, “positions 135” for “position 103”, “245.” for “135.”, “RTV-I135T/V245E.” for “RTV-K103N/I135T.”

[1] = test system: RTV-1033-3/106V/189V/227F; experiment: Phenotypic susceptibility assay, RTV-1033-3/106V/189V/227F; format: cell-based, HIV; settings: RTV-1033-3 with V106A, V189L and F227L reverted
Text: as §1, §2, §3, §4
A resistance test vector containing all of the mutations present in RTV-1033-3 except for V106A, V189L and F227L (RTV-1033-3/106V/189V/227F) was constructed and tested using the phenotypic assay described earlier. The results were compared to those determined using the parent RTV-1033-3. We determined the pattern of phenotypic susceptibility to the NNRTIs, delavirdine, nevirapine and efavirenz, in the reverted vector, RTV-1033-3/106V/189V/227F.

## CC(C)Nc1cccnc1N1CCN(C(=O)c2cc3cc(NS(C)(=O)=O)ccc3[nH]2)CC1 [delavirdine]
RTV-011073/241V
  drug-dependent stimulation of viral replication: no longer negative inhibition
  reductions in susceptibility compared to wild type control RTV: 59 fold
RTV-010829
  drug-dependent stimulation of viral replication: ~100%
  decrease in susceptibility: > 250 fold
RTV-013522
  drug-dependent stimulation of viral replication: ~110%
  decrease in susceptibility: > 250 fold
RTV-K103N/I135T
  drug-dependent stimulation of viral replication: no drug-dependent stimulation
  reductions in susceptibility compared to wild type control RTV: 121 fold
RTV-I135T/V245E
  drug-dependent stimulation of viral replication: no drug-dependent stimulation
  reductions in susceptibility compared to wild type control RTV: 2 fold
[1]
  drug-dependent stimulation of viral replication: ~35%
  reductions in susceptibility compared to wild type control RTV: 2.7 fold

## O=C1Nc2ccc(Cl)cc2[C@@](C#CC2CC2)(C(F)(F)F)O1 [efavirenz]
RTV-011073/241V
  drug-dependent stimulation of viral replication: no longer negative inhibition
  reductions in susceptibility compared to wild type control RTV: 54 fold
RTV-010829
  drug-dependent stimulation of viral replication: ~80%
  decrease in susceptibility: > 450 fold
RTV-013522
  drug-dependent stimulation of viral replication: ~100%
  decrease in susceptibility: > 450 fold
RTV-K103N/I135T
  drug-dependent stimulation of viral replication: no drug-dependent stimulation
  reductions in susceptibility compared to wild type control RTV: 80 fold
RTV-I135T/V245E
  drug-dependent stimulation of viral replication: no drug-dependent stimulation
  reductions in susceptibility compared to wild type control RTV: 2 fold
[1]
  drug-dependent stimulation of viral replication: ~30%
  reductions in susceptibility compared to wild type control RTV: 2 fold

## Cc1ccnc2c1NC(=O)c1cccnc1N2C1CC1 [nevirapine]
RTV-011073/241V
  drug-dependent stimulation of viral replication: no longer negative inhibition
  reductions in susceptibility compared to wild type control RTV: 146 fold
RTV-010829
  drug-dependent stimulation of viral replication: ~100%
  decrease in susceptibility: > 600 fold
RTV-013522
  drug-dependent stimulation of viral replication: ~90%
  decrease in susceptibility: > 600 fold
RTV-K103N/I135T
  drug-dependent stimulation of viral replication: no drug-dependent stimulation
  reductions in susceptibility compared to wild type control RTV: 171 fold
RTV-I135T/V245E
  drug-dependent stimulation of viral replication: no drug-dependent stimulation
  reductions in susceptibility compared to wild type control RTV: 2.5 fold
[1]
  drug-dependent stimulation of viral replication: ~40%
  reductions in susceptibility compared to wild type control RTV: 2.8 fold
